# Laboratory results from publication PMC7463913, “The Interaction of Fluorinated Glycomimetics with DC-SIGN: Multiple Binding Modes Disentangled by the Combination of NMR Methods and MD Simulations” (Pharmaceuticals, 2020).
# Target: T1, DC-SIGN (ECD tetramer) (Homo sapiens, UniProt Q9NNX6)
# T1 construct: DC-SIGN full extracellular domain (ECD, residues 70-404, Thermo Fischer Scientific); made in house
# T1 sequence (Q9NNX6 70-404): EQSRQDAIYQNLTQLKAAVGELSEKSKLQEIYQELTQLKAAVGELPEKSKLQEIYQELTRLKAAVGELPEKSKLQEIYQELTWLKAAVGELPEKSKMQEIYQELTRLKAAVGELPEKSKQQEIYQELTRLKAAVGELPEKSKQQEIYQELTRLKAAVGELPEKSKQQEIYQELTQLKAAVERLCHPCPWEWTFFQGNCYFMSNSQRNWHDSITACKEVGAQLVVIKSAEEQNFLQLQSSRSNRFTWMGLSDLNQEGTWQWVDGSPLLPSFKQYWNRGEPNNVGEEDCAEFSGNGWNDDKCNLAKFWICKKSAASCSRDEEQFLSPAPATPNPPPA
# Experiment: 2D-STD-TOCSYreF NMR experiments (binding epitope)
# Conditions: for total relative STD per Man ring: normalized to the global observed STD; for % STD (normalized): normalized to largest STD in each molecule
# Text: The interaction between DC-SIGN and the three Man-based 2-deoxy-fluoro oligosaccharides (Figure 1) was first analyzed using 2D-STD-TOCSYreF experiments (Figure 2). A long TOCSY mixing time (128 ms) was used to extend the polarization to all protons within the same spin system for each Man ring. The enhanced resolution of the 2D-TOCSYreF allowed the assignment of most of the STD NMR cross peaks with high reliability for the three fluorinated compounds (Figure 2 and Table 1). Generally speaking, the inherent loss of sensitivity due to the heteronuclear reF transfer in the 2D-STD-TOCSYreF experiments is overcompensated by the gained spectral dispersion.
# Figure 2 2D-TOCSYreF off-resonance spectrum (red) and 2D-STD-TOCSYreF peaks (blue) obtained for 1 (top panel), 2 (central panel) and 3 (bottom panel) in the presence of DC-SIGN. The ^19F NMR frequencies are given in the abscissa axis and the ^1H NMR frequencies in the ordinate axis. The STD cross peaks are shifted to high field in the ^19F frequency to facilitate visual inspection. Every blue cross peak corresponds to the STD NMR intensity of the particular ^1H NMR nucleus in a given monosaccharide, which is encoded by the ^19F frequency. The ligand concentration was 1.4 mM in each case, with 9.14 μM of DC-SIGN tetramer, thus containing four carbohydrate recognition domains (CRD) (ligand/protein-CRD ratio is 38:1). The on-resonance irradiation was set to 0.85 ppm, with a saturation time of 2 s. The relative STD values, shown by colored circles, are obtained from the ratio between the corresponding peaks in the 2D STD-TOCSY-reF and 2D-TOCSYreF off-resonance spectra, and normalized to the largest STD in each molecule. The circles connected by a colored thin line correspond to overlapped signals in the spectrum, so that the STD intensity is shown as ‘spread’ between the corresponding ^1H nuclei (meaning each of these protons may contribute or not to the total STD observed). In this case, the added STD intensity is given. The total relative STD per Man ring for each molecule is also specified with a colored tag, using the same color code as the circles. TEXT PRINTED IN THE PICTURE: 1: % STD (Man II): 44 %; % STD (Man III): 9 %; % STD (Man I): 47 % | 2: % STD (Man III): 11 %; % STD (Man I): 89 % | 3: % STD (Man II): 70 %; % STD (Man III): 30 % DOUBTS OF THE COPYIST ABOUT THIS PICTURE: The percent tags are matched to the Man I/II/III rings by position and colour only. The measure '% STD' is printed only at the colour bar. / The percent tags are relative STD-NMR values per sugar ring (binding epitope), so it is uncertain whether they count as a result or belong to the excluded spectra.
# Samples for the 2D STD-TOCSY-reF contained 9.14 µM ECD (tetramer) and 153 eq. of ligand (1.4 mM, the ratio ligand/protein (CRD) is 38:1) in each case. The 2D STD-TOCSY-reF setup consists on a proton saturation transfer scheme (^1Hprotein→^1Hligand-STD) with subsequent evolution through JHH couplings (TOCSY), to finally refocus the STD-edited information in the ^19F dimension (reF). As STD parameters, selective saturation was applied for 2 s using 90º PC9 pulses of 10 ms length, with on-resonance saturation set at 0.85 ppm and off-resonance at 60 ppm. The TOCSY mixing time used was 128 ms, and the corresponding JHF evolution and refocusing delays in the reF module were Δ^H = 10.4 ms and Δ^F = 6 ms, respectively. The relative saturation values (%) were calculated from the ratio between peaks in the 2D STD-TOCSY-reF spectrum and the corresponding ones in the off-resonance TOCSY-reF spectrum.
# [1] = proton ManI-1, ligand 1.4 mM, 9.14 µM tetramer, 2 s saturation at 0.85 ppm
SMILES,total relative STD per Man ring (Man I ring),total relative STD per Man ring (Man II ring),total relative STD per Man ring (Man III ring),% STD (normalized) (overlapped protons ManII-3/6),% STD (normalized) (overlapped protons ManII-4/5),% STD (normalized) (overlapped protons ManIII-1/2),% STD (normalized) [1],% STD (normalized) (proton ManI-2),% STD (normalized) (proton ManI-3),% STD (normalized) (proton ManII-1),% STD (normalized) (proton ManII-2),% STD (normalized) (proton ManI-4),% STD (normalized) (proton ManI-5),% STD (normalized) (proton ManIII-1),% STD (normalized) (proton ManIII-2),% STD (normalized) (overlapped protons ManIII-3/4/5/6)
CO[C@H]1O[C@H](CO[C@H]2O[C@H](CO)[C@@H](O)[C@H](O)[C@@H]2F)[C@@H](O)[C@H](O[C@H]2O[C@H](CO)[C@@H](O)[C@H](O)[C@@H]2F)[C@@H]1F [compound 1],47%,44%,9%,47%,52%,31%,16%,42%,100%,19%,31%,,,,,
CO[C@H]1O[C@H](CO)[C@@H](O)[C@H](O[C@H]2O[C@H](CO)[C@@H](O)[C@H](O)[C@@H]2F)[C@@H]1F [compound 2],89%,,11%,,,,15%,33%,74%,,,100%,22%,17%,14%,
CO[C@H]1O[C@H](CO[C@H]2O[C@H](CO)[C@@H](O)[C@H](O)[C@@H]2F)[C@@H](O)[C@H](O)[C@@H]1F [compound 3],,70%,30%,86%,100%,,,,,31%,45%,,,33%,31%,47%
